Drawing on US8916599B2, “1H-benz imidazole-5-carboxamides as anti-inflammatory agents” (Orexo AB, priority 2008, dated 2014), this text covers inhibition for 32 compounds.

The first test has as its target T1, recombinant human mPGES-1 (Homo sapiens, UniProt O14684).
T1 construct: made in house; host or cells: Rosetta E. coli (microsomal/membrane fraction)
T1 sequence (O14684 1-152): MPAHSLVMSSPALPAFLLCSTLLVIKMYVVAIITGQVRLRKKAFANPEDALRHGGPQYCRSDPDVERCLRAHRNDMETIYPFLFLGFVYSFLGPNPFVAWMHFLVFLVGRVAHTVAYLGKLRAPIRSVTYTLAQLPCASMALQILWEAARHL
The experiment in a line: mPGES-1 inhibition test (microsomes, PGH2 substrate, HTRF detection of PGE2). It counts as biochemical. The note with it: inhibition of mPGES-1 at 1 μM (marked in cell). In outline: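 E. coli microsomal enzyme, 0.1 M KPi pH 7.4 + 2.5 mM GSH; cpd (DMSO) 25 min RT; PGH2 1 min; acidic FeCl2 stop. Dilute 750-fold, HTRF (d2/Eu-cryptate anti-PGE2, overnight 4 °C), 665/620 ratio vs PGE2 standard curve.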
Background: Time-resolved FRET reads energy transfer from a long-lived donor to a nearby acceptor.
A word on the inhibition: it is the percentage by which the read-out fell short of the control. Take `O=C(Nc1ccc(F)c(Br)c1)c1ccc2[nH]c(Nc3c(Cl)cccc3Cl)nc2c1` [Example 70, 2-(2,6-Dichloro-phenylamino)-1H-benzimidazole-5-carboxylic acid (3-bromo-4-fluoro-phenyl)-amide]: the inhibition at 1 µM was 100%.

Take `CC(C)Oc1cc2c(cc1C(=O)NC1CCC(C(F)(F)F)CC1)nc(Nc1c(Cl)ccc(Cl)c1F)n2C` (stereo not drawn) [Example 644, 2-(3,6-Dichloro-2-fluoro-phenylamino)-6-isopropoxy-N-(4-trans-trifluoromethyl-cyclohex-1-yl)-1-methyl-1H-benzimidazole-5-carboxamide]: the inhibition at 1 µM stood at 96%.

The same test, now with this note: inhibition of mPGES-1 at 10 μM.
As for `O=C(Nc1ccc(Br)cc1)c1ccc2[nH]c(Nc3ccc(Cl)cc3Cl)nc2c1` [Example 109, 2-(2,4-Dichloro-phenylamino)-1H-benzimidazole-5-carboxylic acid (4-bromo-phenyl)-amide], the inhibition at 10 µM was determined as 100%.

As to `O=C(NC1CCc2ccccc2C1)c1cc2[nH]c(Nc3c(Cl)cccc3Cl)nc2cc1F` (centres unmarked) [Example 150, 2-(2,6-Dichloro-phenylamino)-6-fluoro-3H-benzimidazole-5-carboxylic acid (1,2,3,4-tetrahydro-naphthalen-2-yl)-amide], the inhibition at 10 µM is 100%.

As for `O=C(NC1CCC(F)(F)CC1)c1ccc2[nH]c(Nc3c(Cl)cccc3Cl)nc2c1` [Example 225, 2-(2,6-Dichloro-phenylamino)-1H-benzimidazole-5-carboxylic acid (4,4-difluoro-cyclohexyl)-amide], the inhibition at 10 µM turned out to be 80%.

Take `Cn1c(Nc2c(Cl)cccc2Cl)nc2cc(C(=O)NCc3ncccc3Cl)c(F)cc21` [Example 452, N-((3-Chloropyridin-2-yl)methyl)-2-(2,6-dichlorophenylamino)-6-fluoro-1-methyl-1H-benzimidazole-5-carboxamide]: the inhibition at 10 µM worked out at 93%.

`O=C(Nc1ccc(Br)cc1)c1ccc2[nH]c(Nc3cccc(Cl)c3C(F)(F)F)nc2c1` [Example 333, 2-(3-Chloro-2-trifluoromethyl-phenylamino)-1H-benzimidazole-5-carboxylic acid (4-bromo-phenyl)-amide]: the inhibition at 10 µM came out at 94%.

`COc1cc2[nH]c(Nc3c(Cl)cccc3Cl)nc2cc1C(=O)Nc1ccc(Br)cc1` [Example 371, N-(4-Bromophenyl)-2-(2,6-dichlorophenylamino)-6-methoxy-1H-benzimidazole-5-carboxamide]: the inhibition at 10 µM turned out to be 100%.

For `Cc1cccnc1NC(=O)c1ccc2c(c1)nc(Nc1c(Cl)cccc1Cl)n2C` [Example 341, 2-(2,6-Dichloro-phenylamino)-1-methyl-1-H-benzimidazole-5-carboxylic acid (3-methyl-pyridin-2-yl)-amide], the inhibition at 10 µM came to 92%.

Turning to `CCc1ccc(C)nc1NC(=O)c1ccc2[nH]c(Nc3c(Cl)cccc3Cl)nc2c1` [Example 558, 2-(2,6-Dichlorophenylamino)-N-(3-ethyl-6-methylpyridin-2-yl)-1H-benzimidazole-5-carboxamide], the inhibition at 10 µM was found to be 77%.

In the case of `COc1cc2c(cc1C(=O)Nc1ccc(Br)cc1)nc(Nc1cc(C(F)(F)F)ccc1C(F)(F)F)n2C` [Example 640, 2-(2,5-Di-(trifluoromethyl)-phenylamino)-N-(4-bromphenyl)-6-methoxy-1-methyl-1H-benzimidazol-5-carboxamide], the inhibition at 10 µM came to 100%.

As to `COc1ccc(NC(=O)c2ccc3nc(Nc4c(Cl)cccc4Cl)[nH]c3c2)nc1` [Example 195, 2-(2,6-Dichloro-phenylamino)-3H-benzimidazole-5-carboxylic acid (5-methoxy-pyridin-2-yl)-amide], the inhibition at 10 µM came out at 92%.

For `N#Cc1ccnc(NC(=O)c2ccc3[nH]c(Nc4c(Cl)cccc4Cl)nc3c2)c1` [Example 539, N-(4-Cyanopyridin-2-yl)-2-(2,6-dichlorophenylamino)-1H-benzimidazole-5-carboxamide], the inhibition at 10 µM is 94%.

Consider `Cn1c(Nc2c(Cl)cccc2Cl)nc2cc(C(=O)Nc3cc(C(F)(F)F)ccn3)ccc21` [Example 203, 2-(2,6-Dichloro-phenylamino)-1-methyl-1H-benzimidazole-5-carboxylic acid (4-trifluoromethyl-pyridin-2-yl)-amide], for which the inhibition at 10 µM came out at 100%.

For the compound `Cc1cccc(NC(=O)c2ccc3[nH]c(Nc4c(Cl)cccc4Cl)nc3c2)c1` [Example 4, 2-(2,6-Dichloro-phenylamino)-1H-benzimidazole-5-carboxylic acid m-tolylamide], the inhibition at 10 µM came out at 100%.

`N#CC1(NC(=O)c2ccc3[nH]c(Nc4c(Cl)cccc4Cl)nc3c2)CCCCC1` [Example 231, 2-(2,6-Dichloro-phenylamino)-1H-benzimidazole-5-carboxylic acid (1-cyano-cyclohexyl)-amide]: the inhibition at 10 µM was 86%.

For `Cc1ccc(NC(=O)c2ccc3[nH]c(Nc4c(Cl)cccc4Cl)nc3c2)nc1C` [Example 498, 2-(2,6-Dichlorophenylamino)-N-(5,6-dimethylpyridin-2-yl)-1H-benzimidazole-5-carboxamide], the inhibition at 10 µM turned out to be 100%.

With `CC(C)Oc1cc2[nH]c(Nc3c(Cl)ccc(Cl)c3F)nc2cc1C(=O)NC1CCC(C)(C)CC1` [Example 618, 2-(3,6-Dichloro-2-fluoro-phenylamino)-6-isopropoxy-N-(4,4-dimethyl-cyclohex-1-yl)-1H-benzimidazole-5-carboxamide], the inhibition at 10 µM stood at 91%.

`O=C(Nc1ccc(Br)cc1)c1cc2nc(Nc3c(Cl)cccc3Cl)[nH]c2cc1OCC(F)(F)F` [Example 590, 2-(2,6-Dichloro-phenylamino)-N-(4-bromo-phenyl)-6-(2,2,2-trifluoroethoxy)-1H-benzimidazole-5-carboxamide]: the inhibition at 10 µM was 96%.

Consider `O=C(Nc1cc(Cl)ccn1)c1ccc2c(c1)nc(Nc1c(Cl)cccc1Cl)n2CCO` [Example 271, 2-(2,6-Dichloro-phenylamino)-1-(2-hydroxy-ethyl)-1H-benzimidazole-5-carboxylic acid (4-chloro-pyridin-2-yl)-amide], for which the inhibition at 10 µM is 98%.

As to `Cn1c(Nc2c(Cl)cccc2Cl)nc2cc(C(=O)NCCC3CCC3)c(F)cc21` [Example 397, N-(2-Cyclobutylethyl)-2-(2,6-dichlorophenylamino)-6-fluoro-1-methyl-1H-benzimidazole-5-carboxamide], the inhibition at 10 µM was determined as 99%.

`Cn1c(Nc2c(Cl)cccc2Cl)nc2cc(C(=O)NC3CCCCC3)cc(Br)c21` [Example 326, 7-Bromo-2-(2,6-dichloro-phenylamino)-1-methyl-1H-benzimidazole-5-carboxylic acid cyclohexylamide]: the inhibition at 10 µM is 96%.

On to `O=C(Nc1cc(Cl)ccn1)c1ccc2c(c1)nc(Nc1c(Cl)cccc1Cl)n2CCN1CCCC1=O` [Example 267, 2-(2,6-Dichloro-phenylamino)-1-[2-(2-oxo-pyrrolidin-1-yl)-ethyl]-1H-benzimidazole-5-carboxylic acid (4-chloro-pyridin-2-yl)-amide], for which the inhibition at 10 µM is 94%.

Take `Cn1c(Nc2c(Cl)cccc2Cl)nc2cc(C(=O)NCCc3cccnc3)ccc21` [Example 259, 2-(2,6-Dichloro-phenylamino)-1-methyl-1H-benzimidazole-5-carboxylic acid (2-pyridin-3-yl-ethyl)-amide]: the inhibition at 10 µM is 89%.

As for `Cn1c(Nc2c(F)cccc2F)nc2cc(C(=O)Nc3ccc(Br)cc3)ccc21` [Example 173, 2-(2,6-Difluoro-phenylamino)-1-methyl-1H-benzimidazole-5-carboxylic acid (4-bromo-phenyl)-amide], the inhibition at 10 µM is 97%.

As for `Cn1c(Nc2cc(C(F)(F)F)ccc2Cl)nc2cc(C(=O)Nc3ccc(Br)cc3)ccc21` [Example 423, N-(4-Bromophenyl)-2-(2-chloro-5-trifluoromethyl-phenylamino)-1-methyl-1H-benzimidazole-5-carboxamide], the inhibition at 10 µM was determined as 100%.

Turning to `CNCCCn1c(Nc2c(Cl)cccc2Cl)nc2cc(C(=O)Nc3cc(Cl)ccn3)ccc21` [Example 266, 2-(2,6-Dichloro-phenylamino)-1-(3-methylamino-propyl)-1H-benzimidazole-5-carboxylic acid (4-chloro-pyridin-2-yl)-amide], the inhibition at 10 µM came to 100%.

Regarding `Cc1ccnc(CNC(=O)c2cc3nc(Nc4c(Cl)cccc4Cl)n(C)c3cc2F)c1` [Example 534, 2-(2,6-Dichlorophenylamino)-6-fluoro-1-methyl-N-((4-methylpyridin-2-yl)methyl)-1H-benzimidazole-5-carboxamide], the inhibition at 10 µM was determined as 80%.

Consider `CCOc1cc2c(cc1C(=O)NC1CCC(C)(C)CC1)nc(Nc1c(Cl)ccc(Cl)c1F)n2C` [Example 607, 2-(3,6-Dichloro-2-fluoro-phenylamino)-6-ethoxy-N-(4,4-dimethyl-cyclohex-1-yl)-1-methyl-1H-benzimidazole-5-carboxamide], for which the inhibition at 10 µM turned out to be 97%.

As for `Cn1c(Nc2c(Cl)cccc2Cl)nc2cc(C(=O)NC3COc4ccccc4C3)c(F)cc21` (centres unmarked) [Example 160, 2-(2,6-Dichloro-phenylamino)-6-fluoro-1-methyl-1H-benzimidazole-5-carboxylic acid chroman-3-ylamide], the inhibition at 10 µM was found to be 98%.

Take `CC(C)c1ccccc1Nc1nc2cc(C(=O)Nc3ccc(Br)cc3)ccc2n1C` [Example 572, N-(4-Bromophenyl)-2-(2-isopropylphenylamino)-1-methyl-1H-benzimidazole-5-carboxamide]: the inhibition at 10 µM came to 45%.

Take `O=C(Nc1cc(Cl)ccn1)c1cc2[nH]c(Nc3c(Cl)cccc3Cl)nc2cc1F` [Example 142, 2-(2,6-Dichloro-phenylamino)-6-fluoro-3H-benzimidazole-5-carboxylic acid (4-chloro-pyridin-2-yl)-amide]: the inhibition at 10 µM came to 100%.
